Laboratory results: the NIST ThermoML archive (doi:10.1021/je0497303)

Test: xn = mol fraction of the nth substance listed
Conditions: 101.3 kPa, Liquid, Taylor dispersion method

SMILES | binary diffusion coefficient (298.15 K, x2 = 0.03) | binary diffusion coefficient (298.15 K, x2 = 0.1) | binary diffusion coefficient (298.15 K, x2 = 0.3) | binary diffusion coefficient (298.15 K, x2 = 0.5) | binary diffusion coefficient (298.15 K, x2 = 0.7) | binary diffusion coefficient (298.15 K, x2 = 0.9) | binary diffusion coefficient (298.15 K, x2 = 0.97) | binary diffusion coefficient (298.15 K, x2 = 0) | binary diffusion coefficient (298.15 K, x2 = 1) | also measured
C1CCCCC1 [cyclohexane] + CCCO | 8.3e-10 m2/s | 6.6e-10 m2/s | 3.9e-10 m2/s | 4.2e-10 m2/s | 6.5e-10 m2/s | 1e-09 m2/s | 1.15e-09 m2/s | – | – | –
C1CCCCC1 [cyclohexane] + CCO | 9.9e-10 m2/s | 7.7e-10 m2/s | 4.3e-10 m2/s | 4.6e-10 m2/s | 7.3e-10 m2/s | 1.23e-09 m2/s | 1.41e-09 m2/s | – | – | –
CCO [ethanol] + O | – | – | – | – | – | – | – | – | – | binary diffusion coefficient (298.15 K, x1 = 0.1): 7e-10 m2/s; binary diffusion coefficient (298.15 K, x1 = 0.2): 4.1e-10 m2/s; binary diffusion coefficient (298.15 K, x1 = 0.3): 3.8e-10 m2/s; binary diffusion coefficient (298.15 K, x1 = 0.5): 5.1e-10 m2/s; binary diffusion coefficient (298.15 K, x1 = 0.7): 7.6e-10 m2/s; binary diffusion coefficient (298.15 K, x1 = 0.9): 1.08e-09 m2/s
CCCCCC [hexane] + CCCO | 3.37e-09 m2/s | 2.17e-09 m2/s | 1.38e-09 m2/s | 1.15e-09 m2/s | 1.08e-09 m2/s | 1.09e-09 m2/s | 1.03e-09 m2/s | 5.2e-09 m2/s | 1.02e-09 m2/s | –
CCCCCC [hexane] + CCO | 4.07e-09 m2/s | 2.41e-09 m2/s | 1.54e-09 m2/s | 1.3e-09 m2/s | 1.3e-09 m2/s | 1.43e-09 m2/s | 1.54e-09 m2/s | 5.74e-09 m2/s | 1.6e-09 m2/s | –
CO [methanol] + O | – | – | – | – | – | – | – | – | – | binary diffusion coefficient (298.15 K, x1 = 0): 1.57e-09 m2/s; binary diffusion coefficient (298.15 K, x1 = 0.1): 1.22e-09 m2/s; binary diffusion coefficient (298.15 K, x1 = 0.3): 9.5e-10 m2/s; binary diffusion coefficient (298.15 K, x1 = 0.5): 1.03e-09 m2/s; binary diffusion coefficient (298.15 K, x1 = 0.7): 1.37e-09 m2/s; binary diffusion coefficient (298.15 K, x1 = 0.9): 1.87e-09 m2/s; binary diffusion coefficient (298.15 K, x1 = 0.97): 2.05e-09 m2/s
ClC(Cl)(Cl)Cl [tetrachloromethane] + CCCCO | 7e-10 m2/s | 5e-10 m2/s | 2.9e-10 m2/s | 3.2e-10 m2/s | 5.4e-10 m2/s | 6.5e-10 m2/s | 6.9e-10 m2/s | 1.47e-09 m2/s | 7.2e-10 m2/s | binary diffusion coefficient (308.15 K, x2 = 0): 1.74e-09 m2/s; binary diffusion coefficient (308.15 K, x2 = 0.03): 9.3e-10 m2/s; binary diffusion coefficient (308.15 K, x2 = 0.1): 7.1e-10 m2/s; binary diffusion coefficient (308.15 K, x2 = 0.3): 5.2e-10 m2/s; binary diffusion coefficient (308.15 K, x2 = 0.5): 5.6e-10 m2/s; binary diffusion coefficient (308.15 K, x2 = 0.7): 6.5e-10 m2/s; binary diffusion coefficient (308.15 K, x2 = 0.9): 8e-10 m2/s; binary diffusion coefficient (308.15 K, x2 = 0.97): 8.9e-10 m2/s; binary diffusion coefficient (308.15 K, x2 = 1): 9.4e-10 m2/s
ClC(Cl)(Cl)Cl [tetrachloromethane] + CCCO | 8.3e-10 m2/s | 6.1e-10 m2/s | 3.9e-10 m2/s | 4.6e-10 m2/s | 6.6e-10 m2/s | 8.3e-10 m2/s | 9.1e-10 m2/s | 1.61e-09 m2/s | 9.5e-10 m2/s | –
ClC(Cl)(Cl)Cl [tetrachloromethane] + CCO | 1.06e-09 m2/s | 8.2e-10 m2/s | 6.4e-10 m2/s | 7.3e-10 m2/s | 9.9e-10 m2/s | 1.32e-09 m2/s | 1.43e-09 m2/s | 1.9e-09 m2/s | 1.47e-09 m2/s | binary diffusion coefficient (303.15 K, x2 = 0): 2.15e-09 m2/s; binary diffusion coefficient (303.15 K, x2 = 0.03): 1.6e-09 m2/s; binary diffusion coefficient (303.15 K, x2 = 0.1): 9.9e-10 m2/s; binary diffusion coefficient (303.15 K, x2 = 0.3): 8.3e-10 m2/s; binary diffusion coefficient (303.15 K, x2 = 0.5): 8.7e-10 m2/s; binary diffusion coefficient (303.15 K, x2 = 0.7): 1.14e-09 m2/s; binary diffusion coefficient (303.15 K, x2 = 0.9): 1.45e-09 m2/s; binary diffusion coefficient (303.15 K, x2 = 0.97): 1.56e-09 m2/s; binary diffusion coefficient (303.15 K, x2 = 1): 1.61e-09 m2/s; binary diffusion coefficient (308.15 K, x2 = 0): 2.24e-09 m2/s; binary diffusion coefficient (308.15 K, x2 = 0.03): 1.8e-09 m2/s; binary diffusion coefficient (308.15 K, x2 = 0.1): 1.1e-09 m2/s; binary diffusion coefficient (308.15 K, x2 = 0.3): 9.5e-10 m2/s; binary diffusion coefficient (308.15 K, x2 = 0.5): 9.9e-10 m2/s; binary diffusion coefficient (308.15 K, x2 = 0.7): 1.28e-09 m2/s; binary diffusion coefficient (308.15 K, x2 = 0.9): 1.6e-09 m2/s; binary diffusion coefficient (308.15 K, x2 = 0.97): 1.76e-09 m2/s; binary diffusion coefficient (308.15 K, x2 = 1): 1.82e-09 m2/s
Cc1ccccc1 [toluene] + CCCO | 2.37e-09 m2/s | 1.81e-09 m2/s | 1e-09 m2/s | 8.5e-10 m2/s | 1.01e-09 m2/s | 1.28e-09 m2/s | 1.4e-09 m2/s | 2.67e-09 m2/s | 1.46e-09 m2/s | –
Cc1ccccc1 [toluene] + CCO | 2.94e-09 m2/s | 2.41e-09 m2/s | 1.22e-09 m2/s | 9.8e-10 m2/s | 1.16e-09 m2/s | 1.55e-09 m2/s | 1.7e-09 m2/s | 3.12e-09 m2/s | 1.74e-09 m2/s | binary diffusion coefficient (308.15 K, x2 = 0): 3.61e-09 m2/s; binary diffusion coefficient (308.15 K, x2 = 0.03): 3.4e-09 m2/s; binary diffusion coefficient (308.15 K, x2 = 0.1): 2.9e-09 m2/s; binary diffusion coefficient (308.15 K, x2 = 0.3): 1.7e-09 m2/s; binary diffusion coefficient (308.15 K, x2 = 0.5): 1.35e-09 m2/s; binary diffusion coefficient (308.15 K, x2 = 0.7): 1.59e-09 m2/s; binary diffusion coefficient (308.15 K, x2 = 0.9): 1.89e-09 m2/s; binary diffusion coefficient (308.15 K, x2 = 0.97): 2.04e-09 m2/s; binary diffusion coefficient (308.15 K, x2 = 1): 2.11e-09 m2/s
